Assay results reported in paper PMC8379256, “A xanthene derivative, DS20060511, attenuates glucose intolerance by inducing skeletal muscle-specific GLUT4 translocation in mice” (Communications Biology, 2021).
Where “and” joins values, the source holds several entries; their conditions need not be identical. Equal entries are not always repeated.

Tested on: L6-GLUT4myc myotubes
Test: GLUT4 translocation: cell surface GLUT4myc by anti-Myc antibody assay in L6-GLUT4myc myotubes
Type: cell-based, rat
Parameters: key to GLUT4 translocation: fold of vehicle-treated group
Protocol: The L6-GLUT4myc rat myoblast cell line was obtained from Dr. Amira Klip and Dr. Philip Bilan, through a license granted by The Hospital for Sick Children, 555 University Avenue, Toronto, Ontario, Canada M5G 1 × 8; or purchased from Kerafast, Boston, MA (ESK202)[43]. The 3T3-L1-GLUT4myc fibroblast cell line was provided by Dr. Tomoyuki Yuasa, Tokushima University[44]. L6-GLUT4myc myoblasts were grown in MEMα (32571036, Thermo Fisher Scientific, Waltham, MA) supplemented with 10% FBS and 1% antibiotics, and then induced to differentiate into myotubes in MEMα supplemented with 2% FBS and 1% antibiotics for 5–8 days. 3T3-L1-GLUT4myc fibroblasts were induced to differentiate into adipocytes as described previously,[45] with minor modifications. Briefly, cells were grown to confluence in growth medium: DMEM (10569010, Thermo Fisher Scientific) supplemented with 10% FBS and 1% antibiotics, and then induced to differentiate into adipocytes in growth medium supplemented with 1 μM dexamethasone, 2 μM rosiglitazone, 0.5 mM isobutylmethylxanthine, and 10 μg mL^−1 insulin for 2 days. The adipocytes were then cultured in growth medium supplemented with 10 μg mL^−1 insulin for a few days before being used for the experiments.
Cell surface GLUT4 levels in the L6-GLUT4myc myoblasts and myotubes were determined by antibody binding assay as described previously[43],[44], with minor modifications. Briefly, cells in a 96- or 24-well plate were starved in serum-free MEMα (0.1% BSA and 1% antibiotics) for 3 h and then treated with the indicated concentrations of DS20060511 and/or insulin for 30 min at 37 °C. After fixation with 4% paraformaldehyde, the cells were incubated with 1% glycine in PBS at 4 °C for 10 min, and blocked with 10% normal goat serum and 3% BSA in PBS at 4 °C for 30 min. The cells were then incubated with anti-c-Myc antibody (sc-40, 1:500) diluted with blocking buffer at 4 °C for 1 h, washed with cold PBS(+), incubated with HRP-conjugated anti-mouse IgG diluted with blocking buffer at 4 °C for 30 min, and then washed again. SuperSignal ELISA Pico Chemiluminescent Substrate (Thermo Fisher Scientific) was added and the luminescent signal was measured. To investigate GLUT4 translocation in the 3T3-L1-GLUT4myc adipocytes, the cells were prepared in a 24-well plate, and anti-c-Myc antibody (sc-789, 1:1000), HRP-conjugated anti-rabbit IgG and SIGMAFAST OPD regent (Sigma–Aldrich) were added for optical detection of the cell surface GLUT4myc levels. The GLUT4 translocation activity was normalized to that in the vehicle-treated group.

C/C1=C/C(=O)O[C@@H]2C[C@@H](CC[C@H](C)/C=C\CC1)O[C@@](O)([C@@H]1CSC(=O)N1)C2 [Latrunculin B, reference compound]
effect on GLUT4 translocation induced by insulin (100 nM insulin, Latrunculin B 10-200 nM, Fig. 4d): suppressed GLUT4 translocation induced by insulin | effect on GLUT4 translocation induced by DS20060511 (30 μM DS20060511, Latrunculin B 10-200 nM, Fig. 4d): not that induced by DS20060511 treatment | GLUT4 translocation (Control (no insulin or DS20060511), Latrunculin B 10 nM): 1.16 and 0.86 and 0.98 | GLUT4 translocation (Control, Latrunculin B 30 nM): 0.98 and 1.11 and 0.90 | GLUT4 translocation (Control, Latrunculin B 100 nM): 1.11 and 0.92 and 0.97 | GLUT4 translocation (Control, Latrunculin B 200 nM): 1.06 and 1.00 and 0.94
